# Source: paper PMC11530689, “Anti colorectal cancer activity and in silico studies of novel pyridine nortopsentin analog as cyclin dependent kinase 6 inhibitor” (Scientific Reports, 2024)
# Experiments:
# Assay type in all cases: cell-based, human
# [1] = tested on: CDK6 gene expression; experiment: Gene expression by quantitative real-time PCR, CDK6; conditions: IC50 dose, 48 h, normalized to GAPDH, vs control
# Experimental: (§1) The cells were seeded in a six-well plate at a concentration of 3 × 10^5 cells/well. After a 24 h incubation, the IC50 dose of active compound 4i was applied to each well for 48 h. The cells were collected and centrifuged at 2500 rpm for 15 min at 4 °C. The total RNA isolation kit (RNeasy extraction kit—QIAGEN) was used to isolate RNA according to the manufacturer’s instructions.
# (§2) Gene expression analysis by quantitative real-time PCR. The levels of gene expression of CDK2, CDK4 and CDK6 were determined using iScript One-Step RT-PCR kit with SYBR Green (BIORAD) according to the manufacturer protocol. The sequences of the used primers are illustrated in Table 4. The genes expression was normalized to GAPDH as the housekeeping gene. The protocol used for cDNA synthesis was: 10 min at 50 °C, iScript Reverse transcriptase inactivation: 5 min at 95 °C and PCR cycling and detection (30 to 45 cycles): 10 s at 95 °C and 30 s at 55 °C to 60 °C.
# [2] = tested on: CDK2 gene expression; experiment: Gene expression by quantitative real-time PCR, CDK2; conditions: IC50 dose, 48 h, normalized to GAPDH, vs control
# Experimental: as §1, §2
# [3] = tested on: CDK4 gene expression; experiment: Gene expression by quantitative real-time PCR, CDK4; conditions: IC50 dose, 48 h, normalized to GAPDH, vs control
# Experimental: as §1, §2
# [4] = tested on: HCT116 cells; experiment: Cell cycle analysis by FACS (PI staining); conditions: HCT116, treated with IC50 for 48 h, control 41.93%
# Experimental: Briefly, HCT116 cells were treated with 4i compound’s IC50 for 48 h. Then, the cells were fixed in cold 70% ethanol solution for 2 h at 4 °C and centrifuged at 800 g for 5 min. The ethanol solution was removed. PBS was used to wash the cells twice. DNA was stained with 1 µg/mL propidium iodide (PI) solution (Sigma-Aldrich, St. Louis, MO, USA), supplemented with 100 µg/mL RNase A (Roche, Basel, Switzerland) for 30 min in the dark at 37 °C. After centrifugation, the cells were suspended in phosphate buffer solution and the fluorescence was measured using flow cytometry by FACSCalibur (BD Biosciences, Mountain View, CA). The data were analyzed using the CellQuest software (BD Biosciences).
compound,measurement,setting,value
CN(C)c1ccc(-c2cc(-c3c[nH]c4ccccc34)nc(-c3c[nH]c4ccccc34)c2C#N)cc1 [4i],Relative gene expression of CDK6,[1],significantly suppress the expression
same,Relative gene expression of CDK2,[2],significantly suppress the expression
same,Relative gene expression of CDK4,[3],significantly suppress the expression
same,cells at G1 phase (%DIP G1),[4],47.62%
